Laboratory results: US20060069132A1, “Azolecarboxamide herbicides” (priority 2004, published 2006)
Where two headings read alike, the source gives them in different places.

Experiments:
giant foxtail [1] = test: Test A pre-/postemergence herbicide test; assay type: in vivo, Setaria faberi; details: Setaria faberi, 240 h; for pest or weed control at 500 g/ha: 500 g ai/ha; for pest or weed control at 2000 g/ha: 2000 g ai/ha
Procedure, shortened: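 Visual injury rating on a 0–100 scale (0 no effect, 100 complete control) versus untreated controls, about ten days after treatment in greenhouse. Pre: directed soil spray onto seeded sandy loam. Post: spray to runoff on plants 2–10 cm tall at one- to two-leaf stage.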

kochia = test: Test C pre-/postemergence herbicide test; assay type: in vivo, Kochia scoparia; details: for pest or weed control at 125 g/ha: 125 g ai/ha
Procedure, shortened: (§1)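 Pre- and postemergence application, solvent/surfactant formulation; post at 1- to 4-leaf stage (2–18 cm). Greenhouse 12–14 d. Visual rating vs controls, 0 = no effect, 100 = complete control.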

giant foxtail [2] = test: Test C pre-/postemergence herbicide test; assay type: in vivo, Setaria faberi; details: for pest or weed control at 250 g/ha: 250 g ai/ha; for pest or weed control at 125 g/ha: 125 g ai/ha
Procedure, shortened: as §1

yellow nutsedge = test: Test C pre-/postemergence herbicide test; assay type: in vivo, Cyperus esculentus; details: for pest or weed control at 125 g/ha: 125 g ai/ha
Procedure, shortened: as §1

common ragweed = test: Test C pre-/postemergence herbicide test; assay type: in vivo, Ambrosia elatior; details: for pest or weed control at 125 g/ha: 125 g ai/ha
Procedure, shortened: as §1

bermudagrass = test: Test C pre-/postemergence herbicide test; assay type: in vivo, Cynodon dactylon; details: for pest or weed control at 250 g/ha: 250 g ai/ha; for pest or weed control at 125 g/ha: 125 g ai/ha
Procedure, shortened: as §1

pigweed = test: Test C pre-/postemergence herbicide test; assay type: in vivo, Amaranthus retroflexus; details: for pest or weed control at 125 g/ha: 125 g ai/ha
Procedure, shortened: as §1

soybean = test: Test C pre-/postemergence herbicide test; assay type: in vivo, Glycine max; details: for plant injury at 125 g/ha: 125 g ai/ha
Procedure, shortened: as §1

large crabgrass = test: Test C pre-/postemergence herbicide test; assay type: in vivo, Digitaria sanguinalis; details: for pest or weed control at 250 g/ha: 250 g ai/ha
Procedure, shortened: as §1

morningglory = test: Test C pre-/postemergence herbicide test; assay type: in vivo, Ipomoea coccinea
Procedure, shortened: as §1

[3] = post-emergence, Postemergence, 0 to 100 scale, 0 no effect, 100 complete control, read-out: Plant response rating, Foxtail, Giant

SMILES: CCOC(=O)c1cccc(NC(=O)c2cc(C(C)(C)C)nn2CC)c1 [Compound 80, ethyl 3-[[[3-(1,1-dimethylethyl)-1-ethyl-1H-pyrazol-5-yl]carbonyl]-amino]benzoate]
- pest or weed control at 500 g/ha (giant foxtail [1]; [3]): 80%
- pest or weed control at 2000 g/ha (giant foxtail [1]; [3]): 90%
- pest or weed control at 500 g/ha (giant foxtail [1]; pre-emergence, Preemergence, visual rating, 0 to 100 scale (0 no effect, 100 complete control), read-out: Foxtail, Giant plant response rating): 20%
- pest or weed control at 2000 g/ha (giant foxtail [1]; pre-emergence, Preemergence, 0 to 100 scale, 0 no effect, 100 complete control, read-out: Foxtail, Giant plant response rating): 70%
- Plant response rating (0 = no effect, 100 = complete control), Kochia (kochia; 62 g ai/ha, preemergence): 10
- pest or weed control at 250 g/ha (kochia; Bassia scoparia, post-emergence, Postemergence, 250 g ai/ha, scale 0 to 100, 0 no effect, 100 complete control, read-out: Plant response rating, Kochia): 100%
- pest or weed control at 125 g/ha (kochia; Bassia scoparia, post-emergence, postemergence, scale 0 to 100, read-out: Plant response rating, Kochia): 100%
- pest or weed control at 62 g/ha (kochia; Bassia scoparia, post-emergence, postemergence, 62 g ai/ha, scale 0 to 100, read-out: Plant response rating, Kochia): 100%
- pest or weed control at 31 g/ha (kochia; Bassia scoparia, pre-emergence, 31 g ai/ha, preemergence, scale 0 to 100, read-out: Plant response rating, Kochia): 10%
- pest or weed control at 125 g/ha (kochia; Bassia scoparia, pre-emergence, scale 0 (no effect) to 100 (complete control), visual, 12 to 14 days, read-out: Plant response rating, Kochia): 10%
- Plant response rating (0 = no effect, 100 = complete control), Foxtail, Giant (giant foxtail [2]; 62 g ai/ha, preemergence): 10
- pest or weed control at 250 g/ha (giant foxtail [2]; Setaria faberi, post-emergence, 312 h, Postemergence, scale 0 to 100, 0 no effect, 100 complete control, read-out: Plant response rating, Foxtail, Giant): 80%
- pest or weed control at 125 g/ha (giant foxtail [2]; Setaria faberi, post-emergence, 312 h, postemergence, scale 0 to 100, read-out: Plant response rating, Foxtail, Giant): 80%
- pest or weed control at 62 g/ha (giant foxtail [2]; Setaria faberi, post-emergence, 312 h, postemergence, 62 g ai/ha, scale 0 to 100, read-out: Plant response rating, Foxtail, Giant): 70%
- pest or weed control at 31 g/ha (giant foxtail [2]; Setaria faberi, pre-emergence, 312 h, 31 g ai/ha, preemergence, scale 0 to 100, read-out: Plant response rating, Foxtail, Giant): 10%
- pest or weed control at 125 g/ha (giant foxtail [2]; Setaria faberi, pre-emergence, 312 h, scale 0 (no effect) to 100 (complete control), visual, 12 to 14 days, read-out: Plant response rating, Foxtail, Giant): 40%
- pest or weed control at 250 g/ha (giant foxtail [2]; Setaria faberi, pre-emergence, 312 h, scale 0 to 100 (0 no effect, 100 complete control), visual, 12 to 14 days, read-out: Plant response rating, Foxtail, Giant): 50%
- Plant response rating (0 = no effect, 100 = complete control), Nutsedge, Yellow (yellow nutsedge; 62 g ai/ha, preemergence): 0
- pest or weed control at 250 g/ha (yellow nutsedge; Cyperus, post-emergence, Postemergence, 250 g ai/ha, scale 0 to 100, 0 no effect, 100 complete control, read-out: Plant response rating, Nutsedge, Yellow): 40%
- pest or weed control at 125 g/ha (yellow nutsedge; Cyperus, post-emergence, postemergence, scale 0 to 100, read-out: Plant response rating, Nutsedge, Yellow): 40%
- pest or weed control at 62 g/ha (yellow nutsedge; Cyperus, post-emergence, postemergence, 62 g ai/ha, scale 0 to 100, read-out: Plant response rating, Nutsedge, Yellow): 40%
- pest or weed control at 31 g/ha (yellow nutsedge; Cyperus, pre-emergence, 31 g ai/ha, preemergence, scale 0 to 100, read-out: Plant response rating, Nutsedge, Yellow): 0%
- pest or weed control at 125 g/ha (yellow nutsedge; Cyperus, pre-emergence, scale 0 (no effect) to 100 (complete control), visual, 12 to 14 days, read-out: Plant response rating, Nutsedge, Yellow): 0%
- Plant response rating (0 = no effect, 100 = complete control), Ragweed (common ragweed; 62 g ai/ha, preemergence): 0
- pest or weed control at 250 g/ha (common ragweed; Ambrosia artemisiifolia, post-emergence, Postemergence, 250 g ai/ha, scale 0 to 100, 0 no effect, 100 complete control, read-out: Plant response rating, Ragweed): 70%
- pest or weed control at 125 g/ha (common ragweed; Ambrosia artemisiifolia, post-emergence, postemergence, scale 0 to 100, read-out: Plant response rating, Ragweed): 70%
- pest or weed control at 62 g/ha (common ragweed; Ambrosia artemisiifolia, post-emergence, postemergence, 62 g ai/ha, scale 0 to 100, read-out: Plant response rating, Ragweed): 70%
- pest or weed control at 31 g/ha (common ragweed; Ambrosia artemisiifolia, pre-emergence, 31 g ai/ha, preemergence, scale 0 to 100, read-out: Plant response rating, Ragweed): 0%
- pest or weed control at 125 g/ha (common ragweed; Ambrosia artemisiifolia, pre-emergence, scale 0 (no effect) to 100 (complete control), visual, 12 to 14 days, read-out: Plant response rating, Ragweed): 0%
- Plant response rating (0 = no effect, 100 = complete control), Bermudagrass (bermudagrass; 62 g ai/ha, preemergence): 10
- pest or weed control at 250 g/ha (bermudagrass; Cynodon dactylon, post-emergence, 312 h, Postemergence, scale 0 to 100, read-out: Bermudagrass plant response rating): 100%
- pest or weed control at 125 g/ha (bermudagrass; Cynodon dactylon, post-emergence, 312 h, postemergence, scale 0 to 100, read-out: Plant response rating, Bermudagrass): 100%
- pest or weed control at 31 g/ha (bermudagrass; Cynodon dactylon, pre-emergence, 312 h, 31 g ai/ha, preemergence, scale 0 to 100, read-out: Plant response rating, Bermudagrass): 0%
- pest or weed control at 125 g/ha (bermudagrass; Cynodon dactylon, pre-emergence, 312 h, scale 0 (no effect) to 100 (complete control), visual, 12 to 14 days, read-out: Plant response rating, Bermudagrass): 10%
- pest or weed control at 250 g/ha (bermudagrass; Cynodon dactylon, pre-emergence, 312 h, scale 0 to 100 (0 no effect, 100 complete control), visual, 12 to 14 days, read-out: Plant response rating, Bermudagrass): 10%
- Plant response rating (0 = no effect, 100 = complete control), Pigweed (pigweed; 62 g ai/ha, preemergence): 40
- pest or weed control at 250 g/ha (pigweed; Amaranthus retroflexus, post-emergence, Postemergence, 250 g ai/ha, scale 0 to 100, 0 no effect, 100 complete control, read-out: Plant response rating, Pigweed): 100%
- pest or weed control at 125 g/ha (pigweed; Amaranthus retroflexus, post-emergence, postemergence, scale 0 to 100, read-out: Plant response rating, Pigweed): 100%
- pest or weed control at 62 g/ha (pigweed; Amaranthus retroflexus, post-emergence, postemergence, 62 g ai/ha, scale 0 to 100, read-out: Plant response rating, Pigweed): 100%
- pest or weed control at 31 g/ha (pigweed; Amaranthus retroflexus, pre-emergence, 31 g ai/ha, preemergence, scale 0 to 100, read-out: Plant response rating, Pigweed): 30%
- pest or weed control at 125 g/ha (pigweed; Amaranthus retroflexus, pre-emergence, scale 0 (no effect) to 100 (complete control), visual, 12 to 14 days, read-out: Plant response rating, Pigweed): 100%
- Plant response rating (0 = no effect, 100 = complete control), Soybean (soybean; 62 g ai/ha, preemergence): 0
- plant injury at 250 g/ha (soybean; Glycine max, post-emergence, Postemergence, 250 g ai/ha, scale 0 to 100, 0 no effect, 100 complete control, read-out: Plant response rating, Soybean): 100%
- plant injury at 125 g/ha (soybean; Glycine max, post-emergence, postemergence, scale 0 to 100, read-out: Plant response rating, Soybean): 90%
- plant injury at 62 g/ha (soybean; Glycine max, post-emergence, postemergence, 62 g ai/ha, scale 0 to 100, read-out: Plant response rating, Soybean): 90%
- plant injury at 31 g/ha (soybean; Glycine max, pre-emergence, 31 g ai/ha, preemergence, scale 0 to 100, read-out: Plant response rating, Soybean): 0%
- plant injury at 125 g/ha (soybean; Glycine max, pre-emergence, scale 0 (no effect) to 100 (complete control), visual, 12 to 14 days, read-out: Plant response rating, Soybean): 0%
- Plant response rating (0 = no effect, 100 = complete control), Crabgrass, Large (large crabgrass; 62 g ai/ha, preemergence): 0
- pest or weed control at 250 g/ha (large crabgrass; Digitaria sanguinalis, post-emergence, 312 h, Postemergence, scale 0 to 100, 0 no effect, 100 complete control, read-out: Plant response rating, Crabgrass, Large): 90%
- pest or weed control at 62 g/ha (large crabgrass; Digitaria sanguinalis, post-emergence, 312 h, postemergence, 62 g ai/ha, scale 0 to 100, read-out: Plant response rating, Crabgrass, Large): 90%
- pest or weed control at 31 g/ha (large crabgrass; Digitaria sanguinalis, pre-emergence, 312 h, 31 g ai/ha, preemergence, scale 0 to 100, read-out: Plant response rating, Crabgrass, Large): 0%
- pest or weed control at 125 g/ha (large crabgrass; Digitaria sanguinalis, pre-emergence, 312 h, 125 g ai/ha, scale 0 (no effect) to 100 (complete control), visual, 12 to 14 days, read-out: Plant response rating, Crabgrass, Large): 10%
- pest or weed control at 250 g/ha (large crabgrass; Digitaria sanguinalis, pre-emergence, 312 h, scale 0 to 100 (0 no effect, 100 complete control), visual, 12 to 14 days, read-out: Plant response rating, Crabgrass, Large): 10%
- Plant response rating (0 = no effect, 100 = complete control), Morningglory (morningglory; 62 g ai/ha, preemergence): 20
- pest or weed control at 250 g/ha (morningglory; Ipomoea, post-emergence, Postemergence, 250 g ai/ha, scale 0 to 100, 0 no effect, 100 complete control, read-out: Plant response rating, Morningglory): 90%
- pest or weed control at 125 g/ha (morningglory; Ipomoea, post-emergence, postemergence, 125 g ai/ha, scale 0 to 100, read-out: Plant response rating, Morningglory): 90%
- pest or weed control at 62 g/ha (morningglory; Ipomoea, post-emergence, postemergence, 62 g ai/ha, scale 0 to 100, read-out: Plant response rating, Morningglory): 90%
- pest or weed control at 31 g/ha (morningglory; Ipomoea, pre-emergence, 31 g ai/ha, preemergence, scale 0 to 100, read-out: Plant response rating, Morningglory): 0%
